Measurements taken from US12594289B2, “Potentiation of antibiotic effect” (The University of North Carolina at Chapel Hill, priority 2017, dated 2026).
Values after ≈ are worked out from the molar mass of the structure shown. Where two headings read alike, the source gives them in different places.

Tests used:
Format in all cases: cell-based, Staphylococcus aureus
S. aureus HG003 [1] = assay: Propidium iodide uptake, membrane permeability (Example 11)
S. aureus HG003 [2] = assay: Killing by permeabilizing molecules in combination with tobramycin over 24 hours (Example 11)
S. aureus HG003 [3] = assay: microbe, parasite or virus in culture; conditions: for MIC: Staphylococcus aureus
S. aureus HG003 [4] = assay: Killing of S. aureus by tobramycin with or without rhamnolipids (Example 4); conditions: tobramycin 58 μg/ml alone
[5] = tested on: S. aureus HG003, arsenate treated; assay: Killing of low energy (arsenate treated) S. aureus (Example 6); conditions: tobramycin 58 μg/ml, arsenate 1 mM
S. aureus HG003 [6] = assay: Killing in the presence of protein synthesis inhibitor linezolid (Example 8); conditions: tobramycin 58 μg/ml, linezolid 50 μg/ml
[7] = tested on: S. aureus HG003 menD mutant (SCV)

| SMILES | lethality to S. aureus alone (S. aureus HG003 [1]) | permeabilization of S. aureus (propidium iodide uptake) (S. aureus HG003 [1]) | MIC (S. aureus HG003 [3]; PA14 / PAO1) | effect of the presence of P. aeruginosa supernatant on MIC (S. aureus HG003 [3]) | MIC (S. aureus HG003 [3]; HG003) | other results |
| --- | --- | --- | --- | --- | --- | --- |
| CCCCCCCCCCCC(=O)OCC(O)CO (stereo not drawn) [glycerol monolaureate] | not lethal | permeabilize | – | – | – | potentiation of tobramycin killing over 24 hours (S. aureus HG003 [2]): significant potentiation |
| NC[C@H]1O[C@H](O[C@H]2[C@H](O)[C@@H](O[C@H]3O[C@H](CO)[C@@H](O)[C@H](N)[C@H]3O)[C@H](N)C[C@@H]2N)[C@H](N)C[C@@H]1O [tobramycin] | – | – | 3.12 to 6.25 µg/mL (≈ 6.68 to 13.4 µM) | – | – | MIC (S. aureus HG003 [3]; PA14): 0.39 µg/mL (≈ 0.834 µM); survivors after 12 hours (S. aureus HG003 [4]): 10^4; killing of S. aureus under arsenate-induced low ATP [5]: fails to kill; killing in the presence of linezolid (S. aureus HG003 [6]): fails to kill; susceptibility of the menD mutant [7]: resistant |
| CN[C@H](CC(C)C)C(=O)N[C@H]1C(=O)N[C@@H](CC(N)=O)C(=O)N[C@H]2C(=O)N[C@H]3C(=O)N[C@H](C(=O)N[C@H](C(=O)O)c4cc(O)cc(O)c4-c4cc3ccc4O)[C@H](O)c3ccc(c(Cl)c3)Oc3cc2cc(c3O[C@@H]2O[C@H](CO)[C@@H](O)[C@H](O)[C@H]2O[C@H]2C[C@](C)(N)[C@H](O)[C@H](C)O2)Oc2ccc(cc2Cl)[C@H]1O [vancomycin] | – | – | 1.25 µg/mL (≈ 0.863 µM) | not affected | 1.25 µg/mL (≈ 0.863 µM) | – |
| CCCCCC/C=C\CCCCCCCC(=O)O [palmitoleic acid] | not lethal | permeabilize | – | – | – | potentiation of tobramycin killing over 24 hours (S. aureus HG003 [2]; in combination with tobramycin): significant potentiation |
| Cc1onc(-c2ccccc2)c1C(=O)N[C@@H]1C(=O)N2[C@@H]1SC(C)(C)[C@@H]2C(=O)O [oxacillin] | – | – | 0.39 µg/mL (≈ 0.971 µM) | not affected | 0.39 µg/mL (≈ 0.971 µM) | – |
